Assays:
[1] = target: T1, Nt-hMLKL^R145A/R146A/F148A/M150A (Homo sapiens, UniProt Q8NB16, F148A/M150A/R145A/R146A); experiment: SPR binding to Nt-hMLKL quadruple mutant; conditions: CM5 chip
T1 construct: an N-terminal domain (Nt-hMLKL, amino acids 2–154, MW: 23 kDa) involved in oligomerization; His (N); made in house; host or cells: E. coli BL21
Excerpt: The hMLKL plasmid (RC213152, OriGene, Rockville, MD, USA), and recombinant Wt-hMLKL (ab241453, Abcam) and Wt-mMLKL (MBS1379843, MyBioSource, San Diego, CA, USA) proteins were purchased. Nt-hMLKL (2–154), Nt-mMLKL (1–180), and Ct-hMLKL (183–471) were generated using the pBT7-N-His vector. Nt-hMLKL^C86A, Nt-hMLKL^F148A, -hMLKL^C86A/L89A/D94A, and Nt-hMLKL^R145A/R146A/F148A/M150A were generated using the Site-directed Mutagenesis Kit (EZ004S, Enzynomics, S. Korea). These constructs were subcloned into pBT7-N-His and pET-15b plasmid vectors. E. coli BL21 cells transformed with the cloned expression vectors were cultured in LB medium and supplemented with 100 μg/mL ampicillin until an OD at 600 nm of 0.5–0.6 was reached. The cultures were induced by 1 mM IPTG (367-93-1, Sigma-Aldrich). The cells were lysed and centrifuged. The clear supernatants were subjected to Ni-NTA affinity chromatography (175018169, QIAGEN, Hilden, Germany). Plasmids encoding mMLKL (1–464)–gyrase fusion constructs were kindly provided by Prof. […]
The interactions of Wt-hMLKL, Wt-mMLKL, Nt-mMLKL, Nt, and Ct-hMLKL proteins with Re-APO or Ox-APO were detected through SPR analysis using Biacore™ T200 (Cytiva, Marlborough, MA, USA). […] Sensorgrams were recorded and analyzed in real-time using the control software in the BIAcore T200 system. All data were analyzed using the BIA evaluation software (Cytiva).

[2] = system: THP-1-HMGB1-Lucia cells; experiment: TBZ-induced necroptosis screening by HMGB1-luciferase release; format: cell-based, human; conditions: Homo sapiens; 20 μM compound with TBZ, 8 h; TBZ alone = 100, DPBS = 0; read-out: % Inhibition (luciferase activity relative to TBZ-treated supernatant)
Protocol: To identify potential inhibitors of the necroptosis pathway targeting MLKL or the process of p-MLKL pore formation on the membrane, we screened a library of 2150 compounds, including FDA-approved drugs and those in phase 1–3 clinical trials, using THP-1-HMGB1-Lucia™ cells expressing the HMGB1-luciferase fusion protein. The cells were treated with a necroptosis-inducing mixture containing TNF-α, BV6, and Z-VAD-FMK (TBZ) in addition to the compound library (Fig. 1A). The supernatants were harvested to measure luciferase activities for necroptosis. The luciferase activities of cell supernatants treated with TBZ alone were considered as the maximum release (100%) of HMGB1-luciferase. NEC-1, a known RIP1 inhibitor used in both humans and mice, was used as a positive control. […] Next, we performed a propidium iodide (PI) uptake assay to exclude cytotoxic compounds using THP-1 cells. Then, we selected candidate molecules that were arbitrarily less than 30% of those treated with TBZ. […] Next, the inhibition levels of p-MLKL were tested to select MLKL-targeting molecules (Figs. 1C and S1A). Compounds that reduced p-MLKL levels to less than 30% of TBZ-treated controls were considered as potential inhibitors of MLKL phosphorylation. Conversely, compounds that maintained p-MLKL levels above 70% were selected because they are presumed to prevent the formation of pores in the plasma membrane by interfering with oligomerization.
A clinical chemical library containing 2150 items (Korea Chemical Bank, South Korea), under phase 1–3 clinical trials, including FDA-approved drugs, was used to screen for necroptosis inhibitors. Each chemical was dissolved in DMSO and diluted to 20 μM in DPBS for treatment.
THP-1-HMGB1-Lucia^TM cells were pretreated with the pan-caspase inhibitor Z-VAD-FMK (50 μM, tlrl-vad, InvivoGen) and each chemical for 1 h, and followed by TNF-α (100 ng/mL, TNF0501, NKMAXBio, Seongnam, S. Korea) and Smac mimetic BV6 (10 μM, B1332-5, Biovision, Santa Clara, CA, USA), termed TBZ mixture, were added for necroptosis screening. The RIP1 inhibitor, NEC-1 (1846, Biovision), and MLKL inhibitor, NSA (432531-71-0, Sigma-Aldrich, St. Louis, MO, USA), were used as controls. The cell supernatant was harvested to measure HMGB1 levels using a luciferase assay kit (E1500, Promega, Madison, WI, USA) by a luminometer (Centro XS3 LB 960, Berthold Technologies, Bad Wildbad, Germany). The inhibition of necroptosis (%) was calculated as: (sample-treated data – medium-only data) × 100/(TBZ-treated data – medium-only data). APO [STK088477, (6aS)-6-methyl-5,6,6a,7-tetrahydro-4H-dibenzo[de,g]quinoline-10,11-diol, Vitas-M Laboratory, Hong Kong] was stored at −70 °C after aliquoting with DMSO. APO was used after dilution in DPBS. APO is susceptible to auto-oxidation in solution in the presence of light and air. DPBS containing 5 mM DTT was used for Re-APO. Ox-APO was prepared by incubating APO in DPBS at 25 °C for 24 h in the presence of light and air, followed by removal of any precipitate by filtration through 0.2 μm.

T1 sequence (Q8NB16 2-154 R145A/R146A/F148A/M150A): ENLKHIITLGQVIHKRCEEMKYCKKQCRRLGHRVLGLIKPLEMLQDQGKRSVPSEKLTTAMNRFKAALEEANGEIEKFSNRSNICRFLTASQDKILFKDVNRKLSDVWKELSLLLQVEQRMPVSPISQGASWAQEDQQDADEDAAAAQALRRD

| SMILES | binding in SPR [1] | activity at 20 µM [2] |
| --- | --- | --- |
| CN1CCc2cccc3c4c(cc1c23)C=CC(=O)C4=O [Ox-APO] | retained binding |  |
| CN1CCc2cccc3c2[C@@H]1Cc1ccc(O)c(O)c1-3 [S62, (6aS)-6-methyl-5,6,6a,7-tetrahydro-4H-dibenzo[de,g]quinoline-10,11-diol] |  | 7.1% |

— article PMC12518639, “Apomorphine is a novel necroptosis inhibitor targeting mixed lineage kinase domain-like protein oligomerization” (Cell Death Discovery, 2025)
